# Legend:
# [1] = test system: germline BRCA-mutated metastatic pancreatic cancer; settings: cited from earlier work
# CYP3A = experiment: nonclinical CYP substrate studies; format: in vitro ADME
# From the text: (§1) Concomitant use of drugs that are moderate or strong inhibitors or inducers of these CYP enzymes should be avoided. […] Concomitant use of drugs that are substrates of CYP2D6 and have a narrow therapeutic index is not advised.
# CYP2D6 [2] = target: T1, CYP2D6 (Homo sapiens, UniProt P10635); experiment: nonclinical CYP substrate studies; format: in vitro ADME
# From the text: as §1
# [3] = Phase 1/2 study of ivaltinostat (IV) in combination with gemcitabine and erlotinib
# Method: Ivaltinostat was administered on Days 1, 8 and 15 of a 28-day cycle in combination with gemcitabine (1000 mg/m^2; IV on Days 1, 8, and 15) and erlotinib (100 mg orally QD).
# In the Phase 2 component of the study, 24 subjects received ivaltinostat at a dose level of 250 mg/m^2 in combination of gemcitabine (1000 mg/m^2; IV on Days 1, 8, and 15) and erlotinib (100 mg orally QD). In Phase 2, planned treatment duration was up to 6 cycles, but treatment could continue beyond 6 cycles if there was no progression of disease, at the discretion of the subject and treating physician.
# CYP3A4 = CYP3A4 (Homo sapiens, UniProt P08684); experiment: in vitro CYP inhibition; format: in vitro ADME
# From the text: as §1
# CYP2D6 [4] = target: T1, CYP2D6; experiment: in vitro CYP inhibition; format: in vitro ADME
# From the text: as §1
# CYP2C19 = CYP2C19 (Homo sapiens, UniProt P33261); experiment: in vitro CYP inhibition; format: in vitro ADME
# From the text: as §1
# CYP1A2 = target: T2, CYP1A2 (Homo sapiens, UniProt P05177); experiment: in vitro CYP inhibition; format: in vitro ADME
# T2 sequence (P05177 1-516): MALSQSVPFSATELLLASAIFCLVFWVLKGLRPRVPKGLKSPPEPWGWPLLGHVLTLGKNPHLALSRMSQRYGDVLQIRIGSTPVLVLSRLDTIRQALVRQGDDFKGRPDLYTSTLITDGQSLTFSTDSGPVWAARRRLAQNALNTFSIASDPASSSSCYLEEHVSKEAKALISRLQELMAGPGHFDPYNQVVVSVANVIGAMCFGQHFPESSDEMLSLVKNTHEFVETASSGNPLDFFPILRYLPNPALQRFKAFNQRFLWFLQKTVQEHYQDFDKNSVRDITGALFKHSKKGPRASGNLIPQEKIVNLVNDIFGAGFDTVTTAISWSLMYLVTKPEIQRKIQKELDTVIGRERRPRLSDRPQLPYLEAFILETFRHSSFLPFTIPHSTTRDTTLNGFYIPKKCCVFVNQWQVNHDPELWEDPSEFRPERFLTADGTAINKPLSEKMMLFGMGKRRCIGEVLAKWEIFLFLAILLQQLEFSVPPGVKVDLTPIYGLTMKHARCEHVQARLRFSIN
# From the text: as §1
# CYP2C9 = CYP2C9 (Homo sapiens, UniProt P11712); experiment: in vitro CYP inhibition; format: in vitro ADME
# From the text: as §1
# pancreatic cancer = settings: 1250 mg/m^2 twice daily for 2 weeks followed by 1-week rest, first line; cited from earlier work
# [5] = test system: metastatic pancreatic cancer; settings: first line; cited from earlier work
# [6] = Phase 2, 250 mg/m^2 plus gemcitabine and erlotinib
# [7] = Phase 2, 16 evaluable subjects, plus gemcitabine and erlotinib
# [8] = Phase 2, 16 subjects with at least one tumor evaluation, plus gemcitabine and erlotinib
# T1 sequence (P10635 whole entry): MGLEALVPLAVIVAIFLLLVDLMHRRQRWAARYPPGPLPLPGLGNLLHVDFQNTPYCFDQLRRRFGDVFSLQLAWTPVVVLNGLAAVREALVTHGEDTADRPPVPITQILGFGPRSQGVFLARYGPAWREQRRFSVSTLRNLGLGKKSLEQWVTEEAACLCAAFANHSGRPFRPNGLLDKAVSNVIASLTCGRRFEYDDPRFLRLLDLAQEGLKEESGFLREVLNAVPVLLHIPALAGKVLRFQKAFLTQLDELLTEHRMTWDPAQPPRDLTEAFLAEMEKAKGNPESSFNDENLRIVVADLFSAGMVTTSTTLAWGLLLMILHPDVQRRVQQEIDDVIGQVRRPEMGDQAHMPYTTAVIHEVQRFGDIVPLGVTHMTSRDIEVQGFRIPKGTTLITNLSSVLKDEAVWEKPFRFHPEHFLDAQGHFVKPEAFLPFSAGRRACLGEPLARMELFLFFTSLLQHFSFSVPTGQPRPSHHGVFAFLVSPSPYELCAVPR
# Sequence of CYP2C19 (P33261 whole entry): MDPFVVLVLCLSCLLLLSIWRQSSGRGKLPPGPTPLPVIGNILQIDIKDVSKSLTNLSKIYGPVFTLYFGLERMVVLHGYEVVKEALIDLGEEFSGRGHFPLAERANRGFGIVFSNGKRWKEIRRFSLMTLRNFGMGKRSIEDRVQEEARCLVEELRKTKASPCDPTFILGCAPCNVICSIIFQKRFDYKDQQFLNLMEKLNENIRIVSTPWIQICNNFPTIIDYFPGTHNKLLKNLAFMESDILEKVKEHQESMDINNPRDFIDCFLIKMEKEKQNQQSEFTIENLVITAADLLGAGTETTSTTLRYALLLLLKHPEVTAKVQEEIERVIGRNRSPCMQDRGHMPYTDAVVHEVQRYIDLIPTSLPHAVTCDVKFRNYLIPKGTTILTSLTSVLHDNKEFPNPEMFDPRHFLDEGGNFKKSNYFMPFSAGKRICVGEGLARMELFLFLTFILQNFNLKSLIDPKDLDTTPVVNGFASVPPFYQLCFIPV
# Sequence of CYP2C9 (P11712 whole entry): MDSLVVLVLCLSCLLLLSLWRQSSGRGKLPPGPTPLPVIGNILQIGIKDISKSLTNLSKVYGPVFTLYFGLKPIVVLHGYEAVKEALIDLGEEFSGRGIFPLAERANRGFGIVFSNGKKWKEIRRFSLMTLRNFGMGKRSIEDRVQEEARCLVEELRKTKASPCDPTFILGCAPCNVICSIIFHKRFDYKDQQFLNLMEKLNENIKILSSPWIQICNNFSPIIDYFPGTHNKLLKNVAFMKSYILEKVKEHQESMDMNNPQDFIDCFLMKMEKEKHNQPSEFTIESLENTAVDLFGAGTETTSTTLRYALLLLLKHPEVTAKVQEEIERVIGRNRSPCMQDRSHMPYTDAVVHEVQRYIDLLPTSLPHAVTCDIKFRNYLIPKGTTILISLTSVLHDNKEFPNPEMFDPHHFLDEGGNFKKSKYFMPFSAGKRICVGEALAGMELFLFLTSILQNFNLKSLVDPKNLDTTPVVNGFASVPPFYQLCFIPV
# Sequence of CYP3A4 (P08684 whole entry): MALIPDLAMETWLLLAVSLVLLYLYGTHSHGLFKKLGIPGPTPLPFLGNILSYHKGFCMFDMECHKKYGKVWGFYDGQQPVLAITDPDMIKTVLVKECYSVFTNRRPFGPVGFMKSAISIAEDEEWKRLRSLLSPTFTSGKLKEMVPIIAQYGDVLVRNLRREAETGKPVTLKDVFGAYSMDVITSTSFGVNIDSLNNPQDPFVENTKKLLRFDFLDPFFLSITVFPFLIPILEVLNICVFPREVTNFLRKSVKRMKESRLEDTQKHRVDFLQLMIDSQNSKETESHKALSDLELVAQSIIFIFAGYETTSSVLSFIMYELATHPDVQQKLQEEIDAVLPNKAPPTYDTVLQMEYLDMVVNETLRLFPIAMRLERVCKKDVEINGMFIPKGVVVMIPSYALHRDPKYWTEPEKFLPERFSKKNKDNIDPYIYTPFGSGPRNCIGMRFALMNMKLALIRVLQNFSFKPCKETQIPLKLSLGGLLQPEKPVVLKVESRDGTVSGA
compound,measurement,setting,value
O=C(c1cc(Cc2n[nH]c(=O)c3ccccc23)ccc1F)N1CCN(C(=O)C2CC2)CC1 [olaparib],median PFS,"[1]; gBRCA patients after ≥16 weeks of platinum-based therapy, vs. placebo",7.4 months
same,HR (PFS vs. placebo),"[1]; gBRCA patients, p=0.004",0.53
"CN(C)CCCNC(=O)/C(=C/CCCCC(=O)NO)COc1cccc2ccccc12.O=P(O)(O)O [ivaltinostat, (E)-N1-(3-(dimethylamino)propyl)-N8-hydroxy-2-((naphthalen-1-yloxy)methyl)oct-2-enediamide phosphate]",substrate for CYP3A,CYP3A,substrate
same,substrate for CYP2D6,CYP2D6 [2],substrate
same,"anemia, grade 3 treatment-related AE frequency",[3]; [6],17%
same,"anemia, grade 4 treatment-related AE frequency",[3]; [6],0%
same,deaths related to SAEs considered related to the investigational drugs,[3]; [6],no deaths
same,discontinuation of study drug due to an AE,[3]; [6],No subjects discontinued
same,"neutrophil count decreased, grade 3 treatment-related AE frequency",[3]; [6],13%
same,"neutrophil count decreased, grade 4 treatment-related AE frequency",[3]; [6],17%
same,"platelet count decreased, grade 3 treatment-related AE frequency",[3]; [6],17%
same,"platelet count decreased, grade 4 treatment-related AE frequency",[3]; [6],13%
same,tolerability,[3]; [6],generally well tolerated
same,partial responses,[3]; [7],25%
same,"partial responses, number of patients",[3]; [7],4 patients
same,stable disease,[3]; [7],68.8%
same,"stable disease, number of patients",[3]; [7],11 patients
same,disease control rate (DCR),[3]; [8],93.8%
same,objective response rate (ORR),[3]; [8],25.0%
same,IC50,CYP3A4,> 10 µM
same,IC50,CYP2D6 [4],5.5 µM
same,IC50,CYP2C19,> 90 µM
same,IC50,CYP1A2,> 10 µM
same,IC50,CYP2C9,> 90 µM
"CCCCCOC(=O)Nc1nc(=O)n([C@@H]2O[C@H](C)[C@@H](O)[C@H]2O)cc1F [Capecitabine, capecitabine]",efficacy and tolerability of dose schedule,pancreatic cancer,effective and tolerable
FOLFIRINOX,median progression-free survival (PFS),[5],6.4 months
same,overall survival (OS),[5],11.1 months

# Source: US20250152526A1, “USES OF IVALTINOSTAT FOR TREATING PANCREATIC CANCER” (CG PHARMACEUTICALS, INC, priority 2022, published 2025)
